Test results taken from ChEMBL document CHEMBL1770081, “Inhibition and structural reliability of prenylated flavones from the stem bark of Morus lhou on β-secretase (BACE-1)” (Bioorg Med Chem Lett, 2011).

biological target: T1, Beta-secretase 1 (Homo sapiens, UniProt P56817); assay: Inhibition of human recombinant BACE-1 expressed in HEK293 cells assessed as inhibition of amyloid precursor protein cleavage into amyloid beta after 60 mins using Rh-EVNLDAEFK-Quencher as a substrate by FRET assay; type: cell-based
T1 sequence (P56817 whole entry): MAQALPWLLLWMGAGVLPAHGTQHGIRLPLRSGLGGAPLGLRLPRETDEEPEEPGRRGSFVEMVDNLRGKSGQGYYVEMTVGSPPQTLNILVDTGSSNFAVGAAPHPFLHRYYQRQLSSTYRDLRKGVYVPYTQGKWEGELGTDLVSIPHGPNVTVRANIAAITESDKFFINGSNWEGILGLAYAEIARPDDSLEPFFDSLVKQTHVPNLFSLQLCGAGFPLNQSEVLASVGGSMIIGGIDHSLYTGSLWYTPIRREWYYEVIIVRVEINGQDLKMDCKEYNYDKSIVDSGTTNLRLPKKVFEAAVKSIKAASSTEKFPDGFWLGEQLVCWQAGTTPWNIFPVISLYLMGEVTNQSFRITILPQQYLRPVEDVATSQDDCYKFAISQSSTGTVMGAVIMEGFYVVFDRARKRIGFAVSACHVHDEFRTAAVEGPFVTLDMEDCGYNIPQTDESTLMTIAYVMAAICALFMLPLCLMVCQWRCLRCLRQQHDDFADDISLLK

SMILES	IC50
CC(C)=CC1Oc2cc(O)ccc2-c2oc3c4c(cc(O)c3c(=O)c21)OC(C)(C)C=C4 (configuration not stated) [CYCLOMORUSIN]	101 µM
C/C(=C/Cc1c(-c2ccc(O)cc2O)oc2c3c(cc(O)c2c1=O)OC(C)(CO)C=C3)CO (configuration not stated) [MORMIN]	103 µM
CC(C)(O)CCc1c(-c2ccc(O)cc2O)oc2c3c(cc(O)c2c1=O)OC(C)(C)C=C3 [MORUSINOL]	136 µM
CC1(C)C=Cc2c(cc(O)c3c(=O)c4c(oc23)-c2ccc(O)cc2OC(C(C)(C)O)C4)O1 (configuration not stated) [NEOCYCLOMORUSIN]	146 µM
O=c1cc(-c2ccc(O)cc2O)oc2cc(O)cc(O)c12 [NORARTOCARPETIN]	60.6 µM

Second part, the compound after the results:

IC50	SMILES
5.3 µM	CC(C)=CCc1c(-c2ccc(O)c3c2OC(C)(C)C=C3)oc2cc(O)cc(O)c2c1=O [KUWANON A]
3.4 µM	CC(C)=CCc1c(-c2ccc(O)cc2O)oc2c(CC=C(C)C)c(O)cc(O)c2c1=O [KUWANON C]
59.4 µM	CC(C)=CCc1c(-c2ccc(O)cc2O)oc2c3c(cc(O)c2c1=O)OC(C)(C)C=C3 [MORUSIN]

biological target: T1, Beta-secretase 1; assay: Noncompetitive inhibition of human recombinant BACE-1 by Dixon plot analysis

Ki	SMILES
10.6 µM	CC(C)=CCc1c(-c2ccc(O)c3c2OC(C)(C)C=C3)oc2cc(O)cc(O)c2c1=O [KUWANON A]
2.2 µM	CC(C)=CCc1c(-c2ccc(O)cc2O)oc2c(CC=C(C)C)c(O)cc(O)c2c1=O [KUWANON C]
64.1 µM	CC(C)=CCc1c(-c2ccc(O)cc2O)oc2c3c(cc(O)c2c1=O)OC(C)(C)C=C3 [MORUSIN]
82.6 µM	O=c1cc(-c2ccc(O)cc2O)oc2cc(O)cc(O)c12 [NORARTOCARPETIN]
